Measured values from patent publication US7258882B2, “System for maintaining fresh quality and safe food attributes of minimally processed produce” (priority 2002, dated 2007).

Test system: total aerobic population
Assay: Total aerobic plate count of washed, packaged and stored mushrooms
From the text: Mushrooms were either 1) untreated (unwashed), that is, left as picked; 2) sodium metabisulfite (sulfite treated) washed. Mushrooms were water rinsed with tap water for 2 seconds then processed through 2 consecutive dip tanks containing 500 ppm sodium metabisulfite in solution; or 3) Washed using the herein disclosed process (new wash) specifically as follows: Mushrooms were conveyed on a slotted conveyor belt and sprayed with tap water for 2 seconds. They dropped into a series of two dip tanks containing 3% (w/v) sodium erythorbate, 0.15% (w/v) disodium EDTA, 0.15% (w/v) calcium chloride. Total residence time was 30 seconds. The whole mushrooms were then treated by dipping in water containing 2 ppm ozone (15 second exposure) followed immediately by 10 second exposure to ultraviolet lamp. Half of the mushroom were sliced and again exposed to 10 seconds of ultraviolet lamp. The mushrooms were packaged and stored at either 35, 45 or 55 degrees Fahrenheit and analyzed microbiologically at day 0, 3, 6, and 9 for total aerobic plate count with a sensitivity of 1,000 cfu/gram, and day 3,6 and 9 for organoleptic properties including degree of whiteness, amount of veil opening, and overall salability/quality. Storage at 45 and 55 degrees Fahrenheit represent physiologically stressful conditions and will illustrate benefits of treatments to a greater extent than 35 degree F. storage. For all examples, data was analyzed statistically using single factor ANOVA and Student's T-test preparing two groups and assuming equal variances. All data was analyzed at 95% confidence levels. Mushrooms were either 1) Mushrooms were washed with water (2-3 second drench with tap water) then processed through 2 consecutive dip tanks containing an aqueous solution of 500 ppm sodium metabisulfite (sulfite treated); or 2) Washed using the herein disclosed process (new wash) specifically as follows: Mushrooms were conveyed on a slotted conveyor belt and sprayed with tap water for […]. They dropped into a series of two dip tanks containing 3% (w/v) sodium erythorbate, 0.15% (w/v) disodium EDTA, 0.15% (w/v) calcium chloride. Total residence time was 30 seconds. The whole mushrooms were then treated with 2 ppm ozone spray followed by 10 second exposure to ultraviolet lamp. Half of the mushroom were sliced and again exposed to 10 seconds of ultraviolet lamp. The mushrooms were packaged and stored at either 35, 45 or 55 degrees Fahrenheit. 35 degree F. stored samples were analyzed at day 0, 2, 6, and 9 and 14 for total aerobic plate count. Both 35 and 45 degree F. stored samples were analyzed on day 2, 6, 9 and 14 for organoleptic properties including degree of whiteness, amount of veil opening, and overall salability/quality. Storage at 45 degrees Fahrenheit represent physiologically stressful conditions and will illustrate benefits of treatments to a greater extent than 35 degree F. storage. Mushrooms were either 1) untreated (unwashed), that is, left as picked; 2)sodium metabisulfite (sulfite treated) washed. Mushrooms were water rinsed with tap water for 5 seconds then processed through 2 consecutive dip tanks containing 500 ppm sodium metabisulfite; or 3)Washed using the herein disclosed process (new wash) specifically as follows: Mushrooms were conveyed on a slotted conveyor belt and sprayed with tap water for 2 seconds. They dropped into a series of two dip tanks containing 3% (w/v) sodium erythorbate, 0.3% (w/v) sodium chloride, 0.3% (w/v) calcium chloride. Total residence time was 30 seconds. In the third treatment (new wash 1) the whole mushrooms were then treated with 2 ppm ozone spray followed immediately by 10 second exposure to ultraviolet lamp. New wash 2 mushrooms were treated as described above but was treated only with ozone, no ultraviolet light. New wash 3 mushrooms were treated with 7 seconds of ultraviolet light, no ozone. New wash 4 mushrooms were treated with ozone and ultraviolet light simultaneously. […]

SMILES: O=S([O-])S(=O)(=O)[O-].[Na+].[Na+] [sulfite treated, sodium metabisulfite]
- Total plate count (Experiment 1, 35 degrees Fahrenheit, sliced, Day 0): 178,805 cfu/g
- Total plate count (Experiment 1, 35 degrees Fahrenheit, sliced, Day 3): 12,344,021 cfu/g
- Total plate count (Experiment 1, 35 degrees Fahrenheit, sliced, Day 6): 31345339 cfu/g
- Total plate count (Experiment 1, 35 degrees Fahrenheit, sliced, Day 9): 383205051 cfu/g
- Total plate count (Experiment 1, 35 degrees Fahrenheit, whole, Day 0): 299,999 cfu/g
- Total plate count (Experiment 1, 35 degrees Fahrenheit, whole, Day 3): 3,849,234 cfu/g
- Total plate count (Experiment 1, 35 degrees Fahrenheit, whole, Day 6): 20709887 cfu/g
- Total plate count (Experiment 1, 35 degrees Fahrenheit, whole, Day 9): 31562526 cfu/g
- Total plate count (Experiment 1, 45 degrees Fahrenheit, sliced, Day 3): 69,673,049 cfu/g
- Total plate count (Experiment 1, 45 degrees Fahrenheit, whole, Day 3): 216,318,555 cfu/g
- Total plate count (Experiment 1, 55 degrees Fahrenheit, sliced, Day 3): 381,362,639 cfu/g
- Total plate count (Experiment 1, 55 degrees Fahrenheit, whole, Day 3): 145,637,959 cfu/g
- Total plate count (Experiment 2, 35 degrees Fahrenheit, sliced, Day 0): 168,922 cfu/g
- Total plate count (Experiment 2, 35 degrees Fahrenheit, sliced, Day 2): 736,188 cfu/g
- Total plate count (Experiment 2, 35 degrees Fahrenheit, sliced, Day 6): 6,101,012 cfu/g
- Total plate count (Experiment 2, 35 degrees Fahrenheit, sliced, Day 9): 7,976,377 cfu/g
- Total plate count (Experiment 2, 35 degrees Fahrenheit, sliced, Day 14): 702,413,006 cfu/g
- Total plate count (Experiment 2, 35 degrees Fahrenheit, whole, Day 0): 24,188 cfu/g
- Total plate count (Experiment 2, 35 degrees Fahrenheit, whole, Day 2): 59,492 cfu/g
- Total plate count (Experiment 2, 35 degrees Fahrenheit, whole, Day 6): 428,579 cfu/g
- Total plate count (Experiment 2, 35 degrees Fahrenheit, whole, Day 9): 734,285 cfu/g
- Total plate count (Experiment 2, 35 degrees Fahrenheit, whole, Day 14): 253,940,711 cfu/g
- Total Plate Count Sliced (Experiment 3, sliced, within 18 hours of processing): 918,987 cfu/gram
- Total Plate Count Whole (Experiment 3, whole, within 18 hours of processing): 352,745 cfu/gram
